# Data reported in ChEMBL document CHEMBL5154675, “Design, Synthesis, and Biological Evaluation of 1-(Indolizin-3-yl)ethan-1-ones as CBP Bromodomain Inhibitors for the Treatment of Prostate Cancer” (J Med Chem, 2022).
# Active and inactive are the calls of the source. No cut-off for these calls is given here.
# How the values were obtained:
# [1] = Hepatic clearance in human liver microsomes at 1 uM incubated for 45 mins in presence of NADPH by LC-MS/MS analysis; format: ADME, Microsome; conditions: read-out: CLH
# LNCaP C4-2B [2] = experiment: Suppression of c-Myc protein expression in human LNCaP C4-2B cells at 5 uM incubated for 48 hrs by Western blot analysis; format: functional, cell-based
# CWR22R [3] = experiment: Suppression of Androgen receptor target-gene expression in human 22Rv1 cells at 5 uM incubated for 48 hrs by SYBR green dye-based qRT-PCR analysis; format: functional, cell-based
# [4] = Half life in human liver microsomes at 1 uM incubated for 45 mins in presence of NADPH by LC-MS/MS analysis; format: ADME, Microsome
# [5] = Intrinsic clearance in rat liver microsomes at 1 uM incubated for 45 mins in presence of NADPH by LC-MS/MS analysis; format: ADME, Microsome; conditions: read-out: CLH
# [6] = biological target: Chromatin remodeling regulator CECR2 (Homo sapiens) (UniProt Q9BXF3); conditions: dose 200.0 µM, time 30.0 min
# Chain of Chromatin remodeling regulator CECR2 (Homo sapiens) (Q9BXF3 whole entry, looked up): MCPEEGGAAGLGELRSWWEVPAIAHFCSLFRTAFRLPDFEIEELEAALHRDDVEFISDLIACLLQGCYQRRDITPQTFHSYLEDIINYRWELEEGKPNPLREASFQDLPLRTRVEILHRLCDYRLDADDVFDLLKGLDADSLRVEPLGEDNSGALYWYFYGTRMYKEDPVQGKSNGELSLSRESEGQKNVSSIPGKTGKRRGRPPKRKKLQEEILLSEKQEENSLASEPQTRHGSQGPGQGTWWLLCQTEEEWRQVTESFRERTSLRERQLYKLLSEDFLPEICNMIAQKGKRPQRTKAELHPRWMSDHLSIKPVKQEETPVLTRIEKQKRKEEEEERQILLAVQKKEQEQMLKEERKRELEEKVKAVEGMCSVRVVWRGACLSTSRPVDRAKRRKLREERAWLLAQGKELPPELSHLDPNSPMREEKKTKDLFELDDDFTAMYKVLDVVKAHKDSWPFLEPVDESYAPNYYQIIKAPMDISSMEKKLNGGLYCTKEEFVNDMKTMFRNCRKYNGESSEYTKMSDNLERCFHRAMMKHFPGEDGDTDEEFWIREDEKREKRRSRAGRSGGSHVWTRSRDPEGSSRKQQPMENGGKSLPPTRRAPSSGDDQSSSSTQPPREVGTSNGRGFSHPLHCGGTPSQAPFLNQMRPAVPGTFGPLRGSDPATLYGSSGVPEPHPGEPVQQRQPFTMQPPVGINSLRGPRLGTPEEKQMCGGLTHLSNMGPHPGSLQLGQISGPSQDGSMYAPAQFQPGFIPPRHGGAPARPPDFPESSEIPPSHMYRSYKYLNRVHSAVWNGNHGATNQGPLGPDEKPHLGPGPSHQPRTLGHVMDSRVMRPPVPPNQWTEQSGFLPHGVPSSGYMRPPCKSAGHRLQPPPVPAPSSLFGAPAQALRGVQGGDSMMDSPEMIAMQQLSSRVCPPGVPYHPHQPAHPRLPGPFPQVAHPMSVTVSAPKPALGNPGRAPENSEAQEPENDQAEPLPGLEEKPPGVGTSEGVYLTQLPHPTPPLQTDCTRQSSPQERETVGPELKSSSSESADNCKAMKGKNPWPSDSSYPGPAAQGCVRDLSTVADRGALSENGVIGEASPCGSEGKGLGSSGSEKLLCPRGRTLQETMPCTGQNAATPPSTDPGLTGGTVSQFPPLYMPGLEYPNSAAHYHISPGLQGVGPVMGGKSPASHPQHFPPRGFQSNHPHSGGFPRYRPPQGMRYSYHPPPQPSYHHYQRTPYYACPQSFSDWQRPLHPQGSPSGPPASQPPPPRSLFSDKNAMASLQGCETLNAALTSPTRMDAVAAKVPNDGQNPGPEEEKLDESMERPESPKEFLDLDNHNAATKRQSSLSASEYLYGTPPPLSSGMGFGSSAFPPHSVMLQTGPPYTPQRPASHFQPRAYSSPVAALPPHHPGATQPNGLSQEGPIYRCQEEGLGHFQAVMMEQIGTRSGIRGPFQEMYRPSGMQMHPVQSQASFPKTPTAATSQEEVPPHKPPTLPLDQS
# LNCaP C4-2B [7] = experiment: Inhibition of colony formation in human LNCaP C4-2B cells at 1 to 4 uM incubated for 14 days by crystal violet staining based assay; format: functional, cell-based; conditions: dose 1-4 µM, time 14.0 day
# CWR22R [8] = experiment: Antimigratory activity against human 22Rv1 cells assessed as reduction in cell migration at 5 uM incubated for 48 hrs by bright-field microscopy based wound healing assay relative to control; format: functional; parameters: scale not given: the % may be the effect or the level left
# [9] = Half life in Sprague-Dawley rat at 5 mg/kg, iv administered as single dose measured up to 24 hrs; format: ADME, organism-based; conditions: Sprague-Dawley, in vivo
# LNCaP C4-2B [10] = experiment: Induction of apoptosis in human LNCaP C4-2B cells assessed as increase in apoptotic cells at 10 uM measured after 48 hrs by Annexin V-FITC and propidium iodide staining based flow cytometry (Rvb= 1%); format: functional
# [11] = Toxicity in NOD SCID mouse xenografted with human 22Rv1 cells assessed as mortality at 40 mg/kg, ip administered once daily for 21 days; format: organism-based, CWR22R; conditions: in vivo, 504 h, time 21 day
# CREB-binding protein = CREB-binding protein (Homo sapiens, UniProt Q92793); experiment: Inhibition of His6-tagged human CBP bromodomain (1081 to 1197 residues) expressed in Escherichia coli BL21 (DE3) incubated for 30 mins by HTRF assay
# CWR22R [12] = experiment: Inhibition of colony formation in human 22Rv1 cells at 1 to 4 uM incubated for 14 days by crystal violet staining based assay; format: functional, cell-based; conditions: dose 1-4 µM, time 14.0 day
# LNCaP = experiment: Suppression of Androgen receptor target-gene expression in human LNCaP cells at 5 uM incubated for 48 hrs by SYBR green dye-based qRT-PCR analysis; format: functional, cell-based
# CWR22R [13] = experiment: Antitumor activity against human 22Rv1 cells xenografted in NOD SCID mouse assessed as tumor growth inhibition at 40 mg/kg, po administered 5 times per week via oral gavage for 14 days and measured every other day relative to control; format: functional; conditions: 22Rv1, 336 h, time 14 day, read-out: TGI
# CWR22R [14] = experiment: Suppression of full length Androgen receptor gene expression in human 22Rv1 cells incubated for 48 hrs by SYBR green dye-based qRT-PCR analysis; format: functional, cell-based; conditions: dose 0-20 µM, DDE = dose-dependent effect
# [15] = Cmax in Sprague-Dawley rat at 5 mg/kg, iv administered as single dose measured up to 24 hrs; format: ADME, organism-based; parameters: time < 24 hrs, dose 5 mg/kg, route iv; conditions: in vivo
# [16] = Hepatic clearance in rat liver microsomes at 1 uM incubated for 45 mins in presence of NADPH by LC-MS/MS analysis; format: ADME, Microsome
# [17] = biological target: T1, Bromodomain-containing protein 2 (Homo sapiens, UniProt P25440); conditions: dose 200.0 µM, time 30.0 min
# T1 sequence (P25440 whole entry, looked up): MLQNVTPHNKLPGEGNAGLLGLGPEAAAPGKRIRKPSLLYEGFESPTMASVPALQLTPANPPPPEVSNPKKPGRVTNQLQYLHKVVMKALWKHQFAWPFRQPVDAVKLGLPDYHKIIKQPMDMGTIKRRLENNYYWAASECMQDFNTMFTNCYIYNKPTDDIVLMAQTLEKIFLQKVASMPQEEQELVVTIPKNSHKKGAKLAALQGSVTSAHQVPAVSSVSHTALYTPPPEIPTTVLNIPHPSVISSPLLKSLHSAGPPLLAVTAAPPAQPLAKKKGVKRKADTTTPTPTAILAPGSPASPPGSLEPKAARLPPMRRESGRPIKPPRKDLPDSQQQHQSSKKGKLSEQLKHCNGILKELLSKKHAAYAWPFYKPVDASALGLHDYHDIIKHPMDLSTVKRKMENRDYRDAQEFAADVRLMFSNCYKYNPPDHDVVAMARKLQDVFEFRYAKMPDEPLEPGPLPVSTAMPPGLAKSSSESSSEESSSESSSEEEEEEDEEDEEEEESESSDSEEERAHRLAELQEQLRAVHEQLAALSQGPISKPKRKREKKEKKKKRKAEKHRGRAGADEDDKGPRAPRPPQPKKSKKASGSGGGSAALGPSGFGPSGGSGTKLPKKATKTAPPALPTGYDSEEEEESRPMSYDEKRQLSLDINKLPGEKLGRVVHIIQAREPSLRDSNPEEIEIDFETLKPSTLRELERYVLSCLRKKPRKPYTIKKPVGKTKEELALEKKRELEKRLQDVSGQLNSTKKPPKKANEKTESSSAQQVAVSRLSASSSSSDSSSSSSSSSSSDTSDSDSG
# [18] = biological target: T2, Bromodomain-containing protein 9 (Homo sapiens) (UniProt Q9H8M2); conditions: dose 200.0 µM, time 30.0 min
# T2 sequence (whole entry): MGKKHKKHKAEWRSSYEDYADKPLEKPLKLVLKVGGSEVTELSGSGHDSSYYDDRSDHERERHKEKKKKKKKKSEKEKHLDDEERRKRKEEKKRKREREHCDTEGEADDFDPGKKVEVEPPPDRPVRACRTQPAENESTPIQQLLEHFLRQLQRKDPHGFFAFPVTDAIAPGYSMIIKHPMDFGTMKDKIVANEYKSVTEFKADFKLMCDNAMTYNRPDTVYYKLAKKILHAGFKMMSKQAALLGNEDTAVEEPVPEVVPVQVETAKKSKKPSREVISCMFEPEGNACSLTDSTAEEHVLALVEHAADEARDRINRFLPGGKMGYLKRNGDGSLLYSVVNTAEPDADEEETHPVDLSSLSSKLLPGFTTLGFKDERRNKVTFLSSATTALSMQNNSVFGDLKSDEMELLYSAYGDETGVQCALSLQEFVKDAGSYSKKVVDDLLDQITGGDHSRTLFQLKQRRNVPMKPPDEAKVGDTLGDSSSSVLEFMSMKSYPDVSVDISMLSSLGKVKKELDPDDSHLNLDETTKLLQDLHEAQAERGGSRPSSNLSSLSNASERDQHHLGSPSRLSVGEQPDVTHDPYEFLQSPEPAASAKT
# [19] = biological target: T1, Bromodomain-containing protein 2; conditions: dose 200.0 µM, time 30.0 min; remark: listed apart in the source
# [20] = biological target: Bromodomain adjacent to zinc finger domain protein 2B (Homo sapiens) (UniProt Q9UIF8); conditions: dose 200.0 µM, time 30.0 min
# Chain of Bromodomain adjacent to zinc finger domain protein 2B (Homo sapiens) (Q9UIF8 whole entry, the tested form may be a part): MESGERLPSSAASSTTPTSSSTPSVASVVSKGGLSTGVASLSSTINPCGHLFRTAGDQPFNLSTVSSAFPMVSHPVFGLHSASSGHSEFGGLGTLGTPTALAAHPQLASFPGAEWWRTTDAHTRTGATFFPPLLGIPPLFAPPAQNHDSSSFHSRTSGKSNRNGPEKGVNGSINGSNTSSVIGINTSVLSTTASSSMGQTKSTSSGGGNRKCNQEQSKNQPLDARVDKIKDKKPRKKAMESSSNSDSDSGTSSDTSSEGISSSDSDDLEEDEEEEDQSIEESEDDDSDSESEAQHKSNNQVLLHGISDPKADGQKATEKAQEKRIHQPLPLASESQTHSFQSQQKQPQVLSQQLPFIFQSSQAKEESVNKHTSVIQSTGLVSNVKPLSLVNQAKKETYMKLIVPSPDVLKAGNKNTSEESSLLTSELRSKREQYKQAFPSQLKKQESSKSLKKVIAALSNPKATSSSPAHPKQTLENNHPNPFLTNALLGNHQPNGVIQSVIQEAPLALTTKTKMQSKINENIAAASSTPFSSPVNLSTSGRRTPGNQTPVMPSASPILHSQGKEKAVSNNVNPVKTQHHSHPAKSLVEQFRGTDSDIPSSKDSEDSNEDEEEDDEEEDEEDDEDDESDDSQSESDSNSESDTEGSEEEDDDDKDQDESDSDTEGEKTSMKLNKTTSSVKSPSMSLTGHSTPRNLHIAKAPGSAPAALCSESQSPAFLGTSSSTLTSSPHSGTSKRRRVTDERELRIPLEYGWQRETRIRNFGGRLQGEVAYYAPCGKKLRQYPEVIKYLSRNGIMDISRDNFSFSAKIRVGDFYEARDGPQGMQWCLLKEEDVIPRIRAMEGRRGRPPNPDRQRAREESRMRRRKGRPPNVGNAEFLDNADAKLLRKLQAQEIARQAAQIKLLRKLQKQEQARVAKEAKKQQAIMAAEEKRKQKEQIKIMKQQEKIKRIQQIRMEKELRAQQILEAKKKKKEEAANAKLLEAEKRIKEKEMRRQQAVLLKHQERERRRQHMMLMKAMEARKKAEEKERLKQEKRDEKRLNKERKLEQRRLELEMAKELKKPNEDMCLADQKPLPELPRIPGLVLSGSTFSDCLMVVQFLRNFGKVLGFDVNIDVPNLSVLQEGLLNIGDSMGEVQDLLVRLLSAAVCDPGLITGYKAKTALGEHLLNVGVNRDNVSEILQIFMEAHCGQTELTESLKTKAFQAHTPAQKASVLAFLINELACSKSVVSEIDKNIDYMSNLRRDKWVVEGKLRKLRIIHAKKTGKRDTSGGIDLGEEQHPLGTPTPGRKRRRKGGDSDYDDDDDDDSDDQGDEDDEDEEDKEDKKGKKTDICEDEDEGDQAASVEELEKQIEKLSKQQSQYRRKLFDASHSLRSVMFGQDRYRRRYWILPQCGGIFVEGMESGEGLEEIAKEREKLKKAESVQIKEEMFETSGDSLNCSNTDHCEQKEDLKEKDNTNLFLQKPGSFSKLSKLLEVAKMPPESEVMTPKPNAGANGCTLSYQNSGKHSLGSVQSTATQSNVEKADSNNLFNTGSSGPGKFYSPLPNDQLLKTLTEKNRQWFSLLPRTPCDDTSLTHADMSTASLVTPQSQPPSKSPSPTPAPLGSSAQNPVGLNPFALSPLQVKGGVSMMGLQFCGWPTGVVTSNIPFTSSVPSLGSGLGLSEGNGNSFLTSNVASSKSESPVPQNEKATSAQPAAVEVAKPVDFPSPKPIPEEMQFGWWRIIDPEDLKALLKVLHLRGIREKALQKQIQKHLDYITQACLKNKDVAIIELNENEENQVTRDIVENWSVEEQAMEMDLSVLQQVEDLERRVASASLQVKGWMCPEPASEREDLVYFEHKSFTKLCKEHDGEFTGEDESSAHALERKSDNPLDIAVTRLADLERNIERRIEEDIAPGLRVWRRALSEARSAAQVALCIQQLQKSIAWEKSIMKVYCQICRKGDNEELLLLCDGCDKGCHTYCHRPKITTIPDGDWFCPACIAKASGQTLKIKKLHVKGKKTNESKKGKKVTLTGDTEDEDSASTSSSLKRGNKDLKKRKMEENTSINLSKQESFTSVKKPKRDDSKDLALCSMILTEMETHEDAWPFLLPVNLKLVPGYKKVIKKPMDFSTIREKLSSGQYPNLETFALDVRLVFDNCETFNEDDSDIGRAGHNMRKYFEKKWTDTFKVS
# [21] = Half life in Sprague-Dawley rat at 25 mg/kg, po measured up to 24 hrs; format: ADME, organism-based; conditions: in vivo
# CWR22R [22] = experiment: Suppression of PSA gene expression in human 22Rv1 cells incubated for 48 hrs by dual luciferase reporter assay; format: functional, cell-based; conditions: dose 0-20 µM, DDE = dose-dependent effect
# LNCaP C4-2B [23] = experiment: Induction of apoptosis in human LNCaP C4-2B cells assessed as increase in apoptotic cells at 20 uM measured after 48 hrs by Annexin V-FITC and propidium iodide staining based flow cytometry (Rvb= 1%); format: functional
structure (smiles),measurement,setting,value
COc1ccn2c(C(C)=O)cc(C(=O)Nc3cc(C(C)O)cc(-c4cnn(C5CC5)c4)c3F)c2c1 (stereo not given),CLint scaled at 1 µM,[1],16.5 mL/min/kg
same,Activity,LNCaP C4-2B [2],Active
same,Activity,CWR22R [3],Active
same,half-life at 1 µM,[4],21.3 min
same,CLint scaled at 1 µM,[5],54.1 mL/min/kg
same,ΔTm,[6],0 °C
same,inhibition,LNCaP C4-2B [7],Active
same,Activity,CWR22R [8],60%
same,half-life,[9],36.6 min
same,Activity,LNCaP C4-2B [10],10.39%
same,Activity,[11],Non-Toxic
same,IC50,CREB-binding protein,4.21 nM
same,inhibition,CWR22R [12],Active
same,Activity,LNCaP,Active
same,inhibition in vivo at 40 mg/kg,CWR22R [13],78%
same,Activity,CWR22R [14],Dde
same,Cmax,[15],8110 ng/mL
same,CLhep predicted at 1 µM,[16],27.3 mL/min/kg
same,ΔTm,[17],-0.8 °C
same,ΔTm,[18],5 °C
same,ΔTm,[19],1 °C
same,ΔTm,[20],0 °C
same,half-life,[21],99.6 min
same,Activity,CWR22R [22],Dde
same,Activity,LNCaP C4-2B [23],13.08%
